Assay results from US12077503B2, “Substituted cyclic amides and their use as herbicides” (FMC CORPORATION, priority 2015, dated 2024).
Where two headings read alike, the source gives them in different places.

Key:
Format in all cases: in vivo
[1] = test system: Galium (catchweed bedstraw, Galium aparine); assay: Test A postemergence; details: Galium, post-emergence, 240 h, Postemergence; for pest or weed control at 125 g/ha: 125 g ai/ha, visual rating about 10 d after treatment, read-out: Galium plant response rating (0 to 100 scale); for pest or weed control at 500 g/ha: 500 g ai/ha, visual injury, 0 to 100 scale (0 no effect, 100 complete control), approx. 10 d, read-out: Plant response rating, Galium
How it was run: (§1)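 Each rating is a visual injury score from 0 to 100 given about 10 d after treatment, judged against untreated controls kept alongside in the greenhouse. In loam soil–sand blend, seeds got a preemergence directed soil spray, while postemergence plants were 2 to 10 cm tall at spraying.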

[2] = test system: barnyardgrass (Echinochloa crus-galli); assay: Test A postemergence; details: Echinochloa crus-galli, post-emergence, 240 h, Postemergence; for pest or weed control at 125 g/ha: 125 g ai/ha, visual rating about 10 d after treatment, read-out: Barnyardgrass plant response rating (0 to 100 scale, 0 no effect, 100 complete control); for pest or weed control at 500 g/ha: 500 g ai/ha, visual injury, 0 to 100 scale (0 no effect, 100 complete control), approx. 10 d, read-out: Plant response rating, Barnyardgrass
How it was run: as §1

[3] = test system: pigweed (Amaranthus retroflexus); assay: Test A postemergence; details: Amaranthus retroflexus, post-emergence, 240 h, Postemergence; for pest or weed control at 125 g/ha: 125 g ai/ha, visual rating about 10 d after treatment, read-out: Pigweed plant response rating (0 to 100 scale); for pest or weed control at 500 g/ha: 500 g ai/ha, visual injury, 0 to 100 scale (0 no effect, 100 complete control), approx. 10 d, read-out: Plant response rating, Pigweed
How it was run: as §1

[4] = test system: ragweed (common ragweed, Ambrosia elatior); assay: Test A postemergence; details: Ambrosia artemisiifolia, post-emergence, 240 h, Postemergence; for pest or weed control at 125 g/ha: 125 g ai/ha, visual rating about 10 d after treatment, read-out: Ragweed plant response rating (0 to 100 scale); for pest or weed control at 500 g/ha: 500 g ai/ha, visual injury, 0 to 100 scale (0 no effect, 100 complete control), approx. 10 d, read-out: Plant response rating, Ragweed
How it was run: as §1

[5] = test system: blackgrass (Alopecurus myosuroides); assay: Test A postemergence; details: Alopecurus myosuroides, post-emergence, 240 h, Postemergence; for pest or weed control at 125 g/ha: 125 g ai/ha, visual rating about 10 d after treatment, read-out: Blackgrass plant response rating (0 to 100 scale); for pest or weed control at 500 g/ha: 500 g ai/ha, visual injury, 0 to 100 scale (0 no effect, 100 complete control), approx. 10 d, read-out: Plant response rating, Blackgrass
How it was run: as §1

corn (Zea mays) = assay: Test A postemergence; details: Zea mays, post-emergence, 240 h, Postemergence; for plant injury at 125 g/ha: 125 g ai/ha, visual rating about 10 d after treatment, read-out: Corn plant response rating (0 to 100 scale); for Corn plant response rating (crop injury, 0 = no effect, 100 = complete kill) at 500 g/ha: 500 g ai/ha, visual injury, 0 to 100 scale (0 no effect, 100 complete control), approx. 10 d
How it was run: as §1

[6] = test system: giant foxtail (Setaria faberii); assay: Test A postemergence; details: Setaria faberi, post-emergence, 240 h, Postemergence; for pest or weed control at 125 g/ha: 125 g ai/ha, visual rating about 10 d after treatment, read-out: Foxtail, Giant plant response rating (0 to 100 scale); for pest or weed control at 500 g/ha: 500 g ai/ha, visual injury, 0 to 100 scale (0 no effect, 100 complete control), approx. 10 d, read-out: Plant response rating, Foxtail, Giant
How it was run: as §1

[7] = test system: wheat (Triticum aestivum); assay: Test A postemergence; details: Triticum aestivum, post-emergence, 240 h, Postemergence; for plant injury at 125 g/ha: 125 g ai/ha, visual rating about 10 d after treatment, read-out: Wheat plant response rating (0 to 100 scale); for plant injury at 500 g/ha: 500 g ai/ha, visual injury, 0 to 100 scale (0 no effect, 100 complete control), approx. 10 d, read-out: Plant response rating, Wheat
How it was run: as §1

Kochia (Kochia scoparia) [8] = assay: Test A postemergence; details: Bassia scoparia, post-emergence, 240 h, Postemergence; for pest or weed control at 125 g/ha: 125 g ai/ha, visual rating about 10 d after treatment, read-out: Kochia plant response rating (0 to 100 scale); for pest or weed control at 500 g/ha: 500 g ai/ha, visual injury, 0 to 100 scale (0 no effect, 100 complete control), approx. 10 d, read-out: Plant response rating, Kochia
How it was run: as §1

[9] = test system: barnyardgrass (Echinochloa crus-galli); assay: Test A preemergence; details: Echinochloa crus-galli, pre-emergence, 240 h; for pest or weed control at 125 g/ha: 125 g ai/ha; for pest or weed control at 500 g/ha: 500 g ai/ha
How it was run: as §1

[10] = test system: ryegrass, Italian (Italian ryegrass, Lolium multiflorum); assay: Test A preemergence; details: Lolium multiflorum, pre-emergence, 240 h; for pest or weed control at 125 g/ha: 125 g ai/ha; for pest or weed control at 500 g/ha: 500 g ai/ha
How it was run: as §1

[11] = test system: pigweed (Amaranthus retroflexus); assay: Test A preemergence; details: Amaranthus retroflexus, pre-emergence, 240 h; for pest or weed control at 125 g/ha: 125 g ai/ha; for pest or weed control at 500 g/ha: 500 g ai/ha
[12] = test system: ragweed (common ragweed, Ambrosia elatior); assay: Test A preemergence; details: Ambrosia artemisiifolia, pre-emergence, 240 h; for pest or weed control at 125 g/ha: 125 g ai/ha; for pest or weed control at 500 g/ha: 500 g ai/ha
How it was run: as §1

[13] = test system: giant foxtail (Setaria faberii); assay: Test A preemergence; details: Setaria faberi, pre-emergence, 240 h; for pest or weed control at 125 g/ha: 125 g ai/ha; for pest or weed control at 500 g/ha: 500 g ai/ha
How it was run: as §1

Kochia (Kochia scoparia) [14] = assay: Test A preemergence; details: Bassia scoparia, pre-emergence, 240 h; for pest or weed control at 125 g/ha: 125 g ai/ha; for pest or weed control at 500 g/ha: 500 g ai/ha
How it was run: as §1

[15] = preemergence, visual injury rating, 0 to 100 scale where 0 is no effect and 100 is complete control, approximately 10 d, read-out: Barnyardgrass plant response rating
[16] = preemergence, 0 to 100 scale where 0 is no effect and 100 is complete control, read-out: Barnyardgrass plant response rating
[17] = preemergence, visual injury rating, 0 to 100 scale where 0 is no effect and 100 is complete control, approximately 10 d, read-out: Ryegrass, Italian plant response rating
[18] = preemergence, 0 to 100 scale where 0 is no effect and 100 is complete control, read-out: Ryegrass, Italian plant response rating
[19] = preemergence, visual injury rating, 0 to 100 scale where 0 is no effect and 100 is complete control, approximately 10 d, read-out: Pigweed plant response rating
[20] = preemergence, 0 to 100 scale where 0 is no effect and 100 is complete control, read-out: Pigweed plant response rating
[21] = preemergence, visual injury rating, 0 to 100 scale where 0 is no effect and 100 is complete control, approximately 10 d, read-out: Ragweed plant response rating
[22] = preemergence, 0 to 100 scale where 0 is no effect and 100 is complete control, read-out: Ragweed plant response rating
[23] = preemergence, visual injury rating, 0 to 100 scale where 0 is no effect and 100 is complete control, approximately 10 d, read-out: Foxtail, Giant plant response rating
[24] = preemergence, 0 to 100 scale where 0 is no effect and 100 is complete control, read-out: Foxtail, Giant plant response rating
[25] = preemergence, visual injury rating, 0 to 100 scale where 0 is no effect and 100 is complete control, approximately 10 d, read-out: Kochia plant response rating
[26] = preemergence, 0 to 100 scale where 0 is no effect and 100 is complete control, read-out: Kochia plant response rating

SMILES	pest or weed control at 125 g/ha [1] [%]	pest or weed control at 500 g/ha [1] [%]	pest or weed control at 125 g/ha [2] [%]	pest or weed control at 500 g/ha [2] [%]	pest or weed control at 125 g/ha [3] [%]	pest or weed control at 500 g/ha [3] [%]	pest or weed control at 125 g/ha [4] [%]	pest or weed control at 500 g/ha [4] [%]	pest or weed control at 125 g/ha [5] [%]	pest or weed control at 500 g/ha [5] [%]	plant injury at 125 g/ha (corn (Zea mays)) [%]	Corn plant response rating (crop injury, 0 = no effect, 100 = complete kill) at 500 g/ha (corn (Zea mays)) [%]	pest or weed control at 125 g/ha [6] [%]	pest or weed control at 500 g/ha [6] [%]	plant injury at 125 g/ha [7] [%]	plant injury at 500 g/ha [7] [%]	pest or weed control at 125 g/ha (Kochia (Kochia scoparia) [8]) [%]	pest or weed control at 500 g/ha (Kochia (Kochia scoparia) [8]) [%]	pest or weed control at 500 g/ha [9, 16] [%]	pest or weed control at 500 g/ha [11, 20] [%]	also measured
COc1cc([C@H]2CN(C)C(=O)[C@@H]2C(=O)Nc2cccc(F)c2C)ccc1F [Compound 1300]	20	40	80	90	0	0	0	0	30	50	20	60	80	90	0	50	0	0	90	40	pest or weed control at 125 g/ha [9, 15]: 90%; pest or weed control at 125 g/ha [10, 17]: 0%; pest or weed control at 500 g/ha [10, 18]: 60%; pest or weed control at 125 g/ha [11, 19]: 0%; pest or weed control at 125 g/ha [12, 21]: 0%; pest or weed control at 500 g/ha [12, 22]: 80%; pest or weed control at 125 g/ha [13, 23]: 90%; pest or weed control at 500 g/ha [13, 24]: 90%; pest or weed control at 125 g/ha (Kochia (Kochia scoparia) [14]; [25]): 0%; pest or weed control at 500 g/ha (Kochia (Kochia scoparia) [14]; [26]): 60%
CN1C[C@H](c2cccc(C(C)(F)F)c2)[C@@H](C(=O)Nc2ccc(F)cc2F)C1=O [Compound 1319]	60	60	90	90	0	50	0	0	70	80	70	80	90	90	60	60	20	60	90	60	pest or weed control at 125 g/ha ([9]; Preemergence, 0 to 100 scale (0 no effect, 100 complete control), read-out: Plant response rating, Barnyardgrass): 90%; pest or weed control at 125 g/ha ([10]; Preemergence, 0 to 100 scale (0 no effect, 100 complete control), read-out: Plant response rating, Ryegrass, Italian): 30%; pest or weed control at 125 g/ha ([11]; Preemergence, 0 to 100 scale (0 no effect, 100 complete control), read-out: Plant response rating, Pigweed): 0%; pest or weed control at 500 g/ha [12, 22]: 20%; pest or weed control at 125 g/ha ([12]; Preemergence, 0 to 100 scale (0 no effect, 100 complete control), read-out: Plant response rating, Ragweed): 0%; pest or weed control at 500 g/ha [13, 24]: 90%; pest or weed control at 125 g/ha ([13]; Preemergence, 0 to 100 scale (0 no effect, 100 complete control), read-out: Plant response rating, Foxtail, Giant): 90%; pest or weed control at 500 g/ha (Kochia (Kochia scoparia) [14]; [26]): 80%; pest or weed control at 125 g/ha (Kochia (Kochia scoparia) [14]; Preemergence, 0 to 100 scale (0 no effect, 100 complete control), read-out: Plant response rating, Kochia): 80%
Cc1nc([C@H]2CN(C)C(=O)[C@@H]2C(=O)Nc2cccc(F)c2F)cs1 [Compound 1281]	0	50	20	80	0	0	0	0	0	0	0	0	20	30	0	0	0	30	90	40	pest or weed control at 125 g/ha [9, 15]: 40%; pest or weed control at 125 g/ha [10, 17]: 0%; pest or weed control at 500 g/ha [10, 18]: 20%; pest or weed control at 125 g/ha [11, 19]: 30%; pest or weed control at 125 g/ha [12, 21]: 0%; pest or weed control at 500 g/ha [12, 22]: 60%; pest or weed control at 125 g/ha [13, 23]: 40%; pest or weed control at 500 g/ha [13, 24]: 90%; pest or weed control at 125 g/ha (Kochia (Kochia scoparia) [14]; [25]): 0%; pest or weed control at 500 g/ha (Kochia (Kochia scoparia) [14]; [26]): 60%
